The test system of assay [1] is Kunming mice with CFA-induced inflammation. Put plainly: Von Frey test (50% paw withdrawal threshold) in CFA-induced inflammatory pain mouse model. It counts as in vivo. Here is the method:
10 μL of complete Freund's adjuvant (CFA) was injected into the left hind foot of mice (♂ Kunming mice, 22 g to 40 g) to induce inflammation. 24 hours after the injection, a Von Frey test was performed to determine a pain threshold. That is, under the guidance of Dixon's Up-Down method, Von Frey fibers were used to induce the mechanical paw withdrawal of the mice, and data were collected and calculated to obtain their 50% paw withdrawal thresholds (paw withdrawal threshold or PWT for short, i.e. pain threshold). Mice were then divided into different groups, including a normal saline group, a positive control group, and a drug group, which were intraperitoneally injected with normal saline, an aspirin (acetylsalicylic acid, or ASA) solution and a solution of compound for testing respectively. A Von Frey test was then performed to monitor changes in pain threshold.
Mice were divided into three groups: a blank control group, an aspirin (ASA) group, and a drug group. In blank control group, the mice were given normal saline, deionized water or deionized water containing ≤5% DMSO at the same volume as that in the drug group. In ASA group, the mice were given the known analgesic drug ASA as the positive control for tested compounds. In drug group, the mice were given compounds for testing accordingly. Due attention was paid to observe whether the pain threshold rose, the period during which the rise was maintained and the magnitude of the rise, after the injection of a tested compound solution.

For assay [2] the test system is unchanged. The description is as above. Type of assay: in vivo. The note with it: Example 10; G1 injected through the tail vein 0.49 mg/kg (atomic mass of vanadium); ASA group as control.
The test system is the same in assay [3]. Put plainly: Effective concentration and plateau experiment of vanadium compounds, tail vein injection, mouse pain model. It counts as in vivo.
Assay [4] deals with mice that suffered from pain due to induced inflammation. The note with it: intrathecal injection, inflammatory pain; cited from earlier work.
Where [5] appears, read: Example 3, intraperitoneal injection, A1 0.97 mg/kg (atomic mass of vanadium), S about 250 mg/kg.
The mark [6] stands for this setting: Example 5, intraperitoneal injection, C 1.9 mg/kg (atomic mass of vanadium), S about 250 mg/kg.
Setting [7] is: Example 6, intraperitoneal injection, D 1.9 mg/kg, S about 250 mg/kg.
[8] abbreviates: Example 7, intraperitoneal injection, B 0.97 mg/kg (atomic mass of vanadium), S about 250 mg/kg.
Setting [9] is: Example 8, intraperitoneal injection, E 0.97 mg/kg (atomic mass of vanadium), ASA about 250 mg/kg.
Where [10] appears, read: Example 9, intraperitoneal injection, F 0.97 mg/kg (atomic mass of vanadium), ASA about 250 mg/kg.
Setting [11] is: Example 11 (BEOV), intraperitoneal injection, I about 0.97 mg/kg (atomic mass of vanadium).
The mark [12] stands for this setting: Example 11 (BMOV), intraperitoneal injection, H1 about 0.97 mg/kg (atomic mass of vanadium).
[13] abbreviates: Example 12, intraperitoneal injection, J about 0.97 mg/kg (atomic mass of vanadium).
Where [14] appears, read: Example 13, intraperitoneal injection, K about 0.97 mg/kg (atomic mass of vanadium).
[15] abbreviates: Example 14, intraperitoneal injection, L about 0.97 mg/kg (atomic mass of vanadium).
The mark [16] stands for this setting: Example 15, intraperitoneal injection, M about 0.97 mg/kg (atomic mass of vanadium).
Where [17] appears, read: Example 16, intraperitoneal injection, N about 0.97 mg/kg (atomic mass of vanadium).
Where [18] appears, read: Example 17, intraperitoneal injection, O about 0.97 mg/kg (atomic mass of vanadium).
Setting [19] is: Example 18, intraperitoneal injection, P about 0.97 mg/kg (atomic mass of vanadium).
Where [20] appears, read: Example 19, intraperitoneal injection, Q about 0.97 mg/kg (atomic mass of vanadium).
The mark [21] stands for this setting: Example 20, intraperitoneal injection, R about 0.97 mg/kg (atomic mass of vanadium).
[22] abbreviates: Plateau experiment, dose (vanadium) A5/G3 0.25, A1/G1/H1 0.49, A4/G2/H2 0.97, H3 1.9 mg/kg, 6 samples, listed as G1.

The structures appear in SMILES notation. “Also recorded” adds a separate entry of the source. Some results are limits rather than exact numbers.

As to `CC(=O)Oc1ccccc1C(=O)O` [Solution S, acetylsalicylic acid, reference compound], the Duration in assay [1] (setting [5]) is listed as less than 45 min; in assay [1] (setting [6]) it was less than 45 min; in assay [1] (Example 5, intraperitoneal injection, C 1.9 mg/kg (atomic mass of vanadium), S about 250 mg/kg, listed as ASA), less than 45 min; in assay [1] (setting [7]), less than 45 min; in assay [1] (Example 6, intraperitoneal injection, D 1.9 mg/kg, S about 250 mg/kg, listed as ASA) it was less than 45 min; in assay [1] (setting [8]) it was less than 45 min. Also, the Duration is on record as less than 45 min in assay [1] (Example 7, intraperitoneal injection, B 0.97 mg/kg (atomic mass of vanadium), S about 250 mg/kg, listed as ASA); less than 45 min in assay [1] (setting [9]); less than 45 min in assay [1] (Example 8, intraperitoneal injection, E 0.97 mg/kg (atomic mass of vanadium), ASA about 250 mg/kg, listed as ASA); less than 45 min in assay [1] (setting [10]); less than 45 min in assay [1] (Example 9, intraperitoneal injection, F 0.97 mg/kg (atomic mass of vanadium), ASA about 250 mg/kg, listed as ASA); less than 45 min in assay [1] (setting [11]). Besides, the Duration in assay [1] (setting [12]), in assay [1] (setting [13]), in assay [1] (setting [14]), in assay [1] (setting [15]), in assay [1] (setting [16]) and in assay [1] (setting [17]) was less than 45 min each time. The Duration in assay [1] (setting [18]), in assay [1] (setting [19]), in assay [1] (setting [20]), in assay [1] (setting [21]) and in assay [2] was less than 45 min throughout. For the same compound, the Onset time in assay [1] (setting [5]), in assay [1] (setting [6]), in assay [1] (setting [7]), in assay [1] (setting [8]), in assay [1] (setting [9]) and in assay [1] (setting [10]) was 15 to 30 after injection min throughout. In addition, the Onset time in assay [1] (setting [11]) was in the range of 15 to 30 after injection min; in assay [1] (setting [12]) it was 0 to 15 after injection min; in assay [1] (setting [13]), 15 to 30 after injection min; in assay [1] (setting [14]) it was 0 to 15 after injection min; in assay [1] (setting [15]), 15 to 30 after injection min; in assay [1] (setting [16]) it was 15 to 30 after injection min. The Onset time in assay [1] (setting [17]) is 15 to 30 after injection min; in assay [1] (setting [18]), 15 to 30 after injection min; in assay [1] (setting [19]), 15 to 30 after injection min; in assay [1] (setting [20]) it was 15 to 30 after injection min; in assay [1] (setting [21]), 15 to 30 after injection min; in assay [2], 0 to 15 after injection min. The “Time after injection at which the pain threshold returned to the baseline value” in assay [1] (intraperitoneal injection, doses as in Examples 3-9) was “about 60 minutes”.
For the compound `O=S(=O)([O-])[O-].[O]=[V+2]` [Solution G1, Vanadyl sulfate], in assay [3] (setting [22]), the Duration was greater than 60 min and the “Maximum analgesic intensity (mean)” value was roughly 0.49 g. Moreover, in assay [2], the Duration is greater than 60 min and the Onset time is listed as 0 to 15 after injection min.
With `[Na+].[Na+].[Na+].[O]=[V]([O-])([O-])[O-]` [Solution A, Sodium orthovanadate], the Analgesic effect entry in assay [4] is recorded as “found the analgesic effect”. In assay [1] (mouse, in vivo, ip), the Analgesic effect entry is recorded as “have an analgesic effect” and the “Effective duration compared with aspirin (ASA)” value was “significantly longer duration of action than that of ASA; also recorded: longer than that of aspirin”. The Minimum effective dose entry in assay [3] (mice) is listed as “about 1.0×10^−3 mg/kg”. The “Blood concentration in mice equivalent to the plateau dose” value in assay [3] (plateau dose 0.49 mg/kg) was 140 µM.

(Values after patent US20240066057A1, “METHOD FOR TREATING PAIN USING VANADIUM COMPOUNDS” (HUNAN FANGSHENGTAI MEDICAL TECHNOLOGY CO., LTD, priority 2020, published 2024).)
